What was measured:
ASC = ASC spot immunofluorescence experiment in BMDM cells; format: cell-based, mouse; conditions: LPS and Nigericin, concentration-dependent
From the text: The formation of ASC oligomers is a key hallmark of inflammasome activation. ASC forms interactions with other ASC molecules through its pyrin domain (PYD), which leads to the aggregation of these molecules, resulting in the formation of a speck-like structure (ASC specks). This process involves not only the aggregation of proteins but also the assembly of a highly ordered structure in the cytoplasm. Inhibition of ASC oligomerization can effectively block NLRP3 inflammasome activation. […] Therefore, we hypothesize that F14 may inhibit caspase-1 activation by interfering with ASC oligomerization or ASC speck formation. To validate this hypothesis, we conducted immunofluorescence experiments in BMDM cells under inflammatory conditions.
Add the BMDM cells into a 24-well plate with a cell density of 3 × 10^5 cells per well. Add LPS (200 ng/mL) to all wells except the blank wells to stimulate the cells for 3 h, then add the F14 to the experimental group and incubate for 1 h, followed by Nigericin stimulation for 30 min. Add 500 μL of FAA fixation solution to each well, incubate with 1% TritonX-100 solution for 15 min, then block with 5% BSA solution. Add an appropriate amount of primary antibody and incubate overnight, wash, then add the secondary antibody for incubation. […]

NLRP3 inflammasome = NLRP3 inflammasome activation by ATP, MSU and Nigericin in BMDMs (ELISA of IL-1β); format: cell-based, mouse; conditions: F14 10 μM; LPS-primed BMDMs stimulated with ATP, MSU or Nigericin
From the text: The NLRP3 inflammasome can be activated by various stimuli, such as microbial toxins and urate crystals. This process plays a central role in the pathogenesis of many inflammatory diseases. To assess whether F14 exerts a broad-spectrum inhibitory effect on NLRP3 inflammasome activation, we used three different activators—ATP, MSU, and Nigericin to stimulate BMDMs. […] Among the inflammasome family, NLRC4 and AIM2 are also protein complexes involved in the innate immune response, playing key roles in inflammatory regulation during infection and tissue damage. Poly (dA:dT) was used to induce AIM2 activation, while S.typhi was employed to stimulate NLRC4 activation. […].
The LPS concentration was 200 ng/mL to pretreat BMDM cells for 3 h, then F14 (10 μM) was added to treat the cells for 30 min, and then each inducer—Nigericin (10 μM, 0.5 h), ATP (2.5 mM, 0.5 h), MSU (150 μg/mL, 4 h), S.typhi (4 h), and poly-(dA:dT) (0.5 μg/mL, 4 h)—were added for stimulation. (A) F14 has a broad-spectrum inhibitory effect on NLRP3 inflammasome activation. (B) F14 has a specific inhibitory effect on NLRP3 inflammasome activation. Data are presented as the mean ± SEM (n = 3). *** p < 0.001 vs. the model group. NS, not significant.

BMDM cells = assay: MitoTracker/MitoSOX staining and ROS detection (DCFH-DA flow cytometry) in BMDMs; format: cell-based, mouse; conditions: LPS and Nigericin
From the text: Mitochondrial dysfunction and excessive production of reactive oxygen species (ROS) are key upstream signaling events in the activation of the NLRP3 inflammasome. To investigate whether compound F14 affects mitochondrial damage and ROS production, we performed staining experiments using MitoTracker and MitoSOX, followed by imaging and analysis using a confocal microscope. […] To further verify the effect of F14 on ROS levels, we used flow cytometry to measure intracellular ROS levels in BMDM cells stimulated with Nigericin.
BMDMs were seeded at a density of 1.0 × 10^6 cells per well in a 6-well plate, and the cell treatment was performed as described above. DCFH-DA probe was added to each well at a 1:1000 dilution (prepared in serum-free medium), and the cells were incubated at 37 °C in the dark for 20 min. The cells were gently mixed every 5 min to ensure uniform probe penetration. The cells were washed three times with PBS, and ROS levels were measured using flow cytometry (excitation/emission wavelengths: 488/525 nm).

[1] = system: IL-1β secretion in THP-1 cells (NLRP3 inflammasome); assay: Inhibition of IL-1β secretion in THP-1 cells; format: cell-based; conditions: Homo sapiens, three independent experiments
Experimental: Through SAR analysis, we identified compound F14 as the target compound for further investigation. To further validate its activity, the half-inhibitory concentration (IC50) of compound F14 for IL-1β release was determined in the BMDM model. […] To more comprehensively assess the potential of compound F14, we further evaluated its inhibition of IL-1β in THP-1 cells.
Figure 3 F14 inhibits the secretion of IL-1β. (A) Detection of F14 inhibition of IL-1 β secretion in BMDM cells; (B) Detection of F14 inhibition of IL-1 β secretion in THP-1 cells. IC50 calculation and dose-response curve fitting were performed using GraphPad Prism (8.0) software. All data were obtained from three independent experiments.

Structure (SMILES): Cc1ccc(C(=O)/C=C/c2cccc(O)c2)c(C)c1 [Compound F14, (E)-1-(2,4-dimethylphenyl)-3-(3-hydroxyphenyl)propyl-2-en-1-one]
- ASC speckles (ASC): significant reduction
- protein expression levels of mature IL-1β (ELISA) (NLRP3 inflammasome): significantly reduced
- mitochondrial membrane potential and fluorescence intensity of mitochondrial superoxide anions (BMDM cells; MitoTracker, MitoSOX): no significant improvement
- total ROS levels (BMDM cells; flow cytometry): no significant change
- IC50 [1]: 880 nM

From paper PMC12388496, “Discovery of (E)-1,3-Diphenyl-2-Propen-1-One Derivatives as Potent and Orally Active NLRP3 Inflammasome Inhibitors for Colitis” (Molecules, 2025)
